{"source": "patent US20040044075A1", "about": "“Alpha acyloxyacetamides for kallikrein and urokinase inhibition” (Genzyme Corporation, priority 2002, published 2004)", "key": {"Kallikrein": {"biological_target": "Kallikrein (Homo sapiens, UniProt P03952)", "sequence (P03952 whole entry)": "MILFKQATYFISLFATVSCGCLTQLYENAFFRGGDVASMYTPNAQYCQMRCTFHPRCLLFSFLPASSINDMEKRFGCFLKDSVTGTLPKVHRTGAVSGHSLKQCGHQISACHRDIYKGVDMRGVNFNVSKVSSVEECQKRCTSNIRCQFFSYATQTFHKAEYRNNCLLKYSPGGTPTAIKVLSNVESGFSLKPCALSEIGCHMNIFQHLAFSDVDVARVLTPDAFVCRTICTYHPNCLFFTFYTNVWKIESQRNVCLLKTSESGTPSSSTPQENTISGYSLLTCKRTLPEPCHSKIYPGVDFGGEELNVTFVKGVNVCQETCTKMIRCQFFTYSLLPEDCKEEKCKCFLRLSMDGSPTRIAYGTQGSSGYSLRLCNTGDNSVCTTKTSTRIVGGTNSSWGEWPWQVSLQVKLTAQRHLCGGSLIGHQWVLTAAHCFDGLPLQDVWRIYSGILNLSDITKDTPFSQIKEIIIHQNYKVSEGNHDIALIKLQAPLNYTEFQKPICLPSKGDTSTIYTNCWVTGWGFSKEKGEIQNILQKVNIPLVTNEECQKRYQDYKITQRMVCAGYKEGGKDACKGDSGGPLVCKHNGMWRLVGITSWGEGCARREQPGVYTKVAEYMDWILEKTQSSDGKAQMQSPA", "test": "Kallikrein inhibition assay (fluorometric, H-Pro-Phe-Arg-AMC substrate)", "type": "biochemical", "details": "24° C, HEPES pH 7.5, 5% DMSO, fluorescence after ten minutes", "procedure": "Kallikrein activity was assayed fluorometrically with an aminomethyl coumarin-containing (AMC-containing) substrate according to procedures described in Zimmerman et al., Proc. Natl. Acad. Sci. USA 75:750 (1978), the entire teachings of which are incorporated herein by reference. Specifically, enzyme assays with varying concentrations of the fluorogenic substrate H-Pro-Phe-Arg-AMC were conducted at 24° C in 0.05 M 4-(2-hydroxyethyl)-piperazineethanesulfonic acid (HEPES) buffer, pH 7.5/5% (vol/vol) dimethyl sulfoxide. The final volume was 0.1 ml in each assay. Fluorescence was read after ten minutes at 360 nm (activation wavelength) and 460 nm (emission wavelength)."}, "[1]": {"test_system": "ICR derived male or female mice", "test": "Acetic acid writhing assay", "type": "in vivo", "details": "for % Reduction of Writhes: one hour before acetic acid", "procedure": "The analgesic activity of a number of compounds of the present invention were tested in an acetic acid writhing assay disclosed in Inoue et al., Arzneimittel Forschung Drug Research 41:228 (1991), the entire teachings of which are incorporated herein by reference. The test substance was administered intraperitoneally (500, 100 and 20 mg/kg) to groups of 3 ICR derived male or female mice weighing 22±2 g one hour before the injection of acetic acid (3%, 10 ml/kg, IP). Reduction in the number of writhes by 50% or more per group of animals observed during the 5-10 minutes period after acetic acid administration, relative to a vehicle-treated control group (challenge with acetic acid), indicates analgesic activity."}, "[2]": {"test_system": "Long Evans derived male or female rats", "test": "Carageenan assay (hind paw edema)", "type": "in vivo", "details": "for Inhibition (of hind paw edema): 3 hours after carageenan; for Edema: hind paw edema 3 hours after carageenan", "procedure": "The assay was performed according to procedures disclosed in Winter et al, Proc. Exper. Biol. Med 111: 544 (1962), the entire teachings of which are incorporated herein by reference. […] Hind paw edema, as a measure of inflammation, was measured 3 hours after carageenan administration using a plethysmometer (Ugo Basile Catalog No. 7150) with water cell (25 mm diameter, Catalog No. 7157). Reduction of hind paw edema by 30% or more indicates significant acute anti-inflammatory activity."}, "male rats": {"test_system": "male rats", "test": "Rat model of inflammatory bowel disease (DNBS-induced distal colitis)", "type": "in vivo", "procedure": "Compounds were tested according to procedures described in C M Hogaboam et al., Eur. J. Pharmacol. 309:261 (1996), the entire teachings of which are incorporated herein by reference. Groups of 3 overnight fasted male rats weighing 150±10 grams were used. Distal colitis was induced by intra-colonic instillation of 0.5 ml/rat of DNBS (2,4-dinitrobenzene sulfonic acid, 60 mg/ml in ethanol 30%) after which air (2 ml) was gently injected through the cannula to ensure that the solution remained in the colon. Test compound was administered orally 24 and 2 hours before DNBS instillation and then daily for 5 days in total of 7 doses. The animals were sacrificed 24 hours after the final dose of test compound administration and each colon was removed and weighed. A 30 percent or more (≧30%) inhibition in net increase of colon to 100 grams body weight ratio, relative to vehicle-control-2 group is considered significant."}, "[3]": {"details": "4 mg/kg PO × 7, with DNBS, rats"}, "[4]": {"details": "20 mg/kg PO × 7, with DNBS, rats"}, "[5]": {"details": "75 mg/kg PO × 7, with DNBS, rats"}}, "data": [{"molecule": "COc1ccc(OC)c(C(=O)CCC(=O)OC(C(=O)NCc2cc(OC)c(OC)c(OC)c2)c2ccc(Br)cc2)c1", "note": "(stereo not shown) [Compound (26)]", "values": [{"measurement": "IC50", "setting": "Kallikrein", "result": 0.191, "unit": "µM"}, {"measurement": "% Reduction of Writhes", "setting": "[1]; 20 mg/kg IP", "result": 25, "unit": "%"}, {"measurement": "% Reduction of Writhes", "setting": "[1]; 100 mg/kg IP", "result": 58, "unit": "%"}, {"measurement": "% Reduction of Writhes", "setting": "[1]; 500 mg/kg IP", "result": 75, "unit": "%"}, {"measurement": "significance of response in the acetic acid writhing test (in words)", "setting": "[1]; both the 500 and 100 mg/kg doses IP", "result": "significant response"}, {"measurement": "Inhibition (of hind paw edema)", "setting": "[2]; 30 mg/kg IP", "result": 0, "unit": "%"}, {"measurement": "Edema", "setting": "[2]; 30 mg/kg IP", "result": 0.97, "unit": "mL"}, {"measurement": "Inhibition (of hind paw edema)", "setting": "[2]; 100 mg/kg IP", "result": 19, "unit": "%"}, {"measurement": "Edema", "setting": "[2]; 100 mg/kg IP", "result": 0.76, "unit": "mL"}, {"measurement": "Inhibition (of hind paw edema)", "setting": "[2]; 300 mg/kg IP", "result": 34, "unit": "%"}, {"measurement": "Edema", "setting": "[2]; 300 mg/kg IP", "result": 0.62, "unit": "mL"}, {"measurement": "dose response in the carageenan assay (in words)", "setting": "[2]; 300, 100 and 30 mg/kg IP", "result": "dose responsive activity"}, {"measurement": "statistical significance of response in the carageenan assay (in words)", "setting": "[2]; highest dose (300 mg/kg) IP", "result": "statistically significant response"}, {"measurement": "Ave. (average final weight of the colon in grams)", "setting": "male rats; [3]", "result": 1.061, "unit": "grams"}, {"measurement": "Inhibition (percent inhibition in net increase of colon weight relative to control Group 2)", "setting": "male rats; [3]", "result": 0, "unit": "%"}, {"measurement": "Net Inc. (net increase in weight of the colon relative to control Group 1)", "setting": "male rats; [3]", "result": 0.574, "unit": "grams"}, {"measurement": "Ave. (average final weight of the colon in grams)", "setting": "male rats; [4]", "result": 0.947, "unit": "grams"}, {"measurement": "Inhibition (percent inhibition in net increase of colon weight relative to control Group 2)", "setting": "male rats; [4]", "result": 17, "unit": "%"}, {"measurement": "Net Inc. (net increase in weight of the colon relative to control Group 1)", "setting": "male rats; [4]", "result": 0.460, "unit": "grams"}, {"measurement": "Ave. (average final weight of the colon in grams)", "setting": "male rats; [5]", "result": 0.857, "unit": "grams"}, {"measurement": "Inhibition (percent inhibition in net increase of colon weight relative to control Group 2)", "setting": "male rats; [5]", "result": 33, "unit": "%"}, {"measurement": "Net Inc. (net increase in weight of the colon relative to control Group 1)", "setting": "male rats; [5]", "result": 0.370, "unit": "grams"}, {"measurement": "dose response in the rat model of inflammatory bowel disease (in words)", "setting": "male rats; 75, 20 and 4 mg/kg PO × 7, rats", "result": "dose responsive activity"}, {"measurement": "statistical significance of response in the rat model of inflammatory bowel disease (in words)", "setting": "male rats; highest dose (75 mg/kg) PO × 7, rats", "result": "statistically significant response"}, {"measurement": "activity in a rat model of inflammatory bowel disease (in words)", "setting": "male rats; summary statement", "result": "activity"}]}, {"molecule": "COc1ccc(NC(=O)C(OC(=O)CSc2ncccn2)c2ccc(Br)cc2)cc1OC", "note": "(stereo not shown) [Compound (29)]", "values": [{"measurement": "IC50", "setting": "Kallikrein", "result": 0.31, "unit": "µM"}, {"measurement": "% Reduction of Writhes", "setting": "[1]; 20 mg/kg IP", "result": 17, "unit": "%"}, {"measurement": "% Reduction of Writhes", "setting": "[1]; 100 mg/kg IP", "result": 33, "unit": "%"}, {"measurement": "% Reduction of Writhes", "setting": "[1]; 500 mg/kg IP", "result": 83, "unit": "%"}]}, {"molecule": "COc1ccc2c(c1)c(CC(=O)O)c(C)n2C(=O)c1ccc(Cl)cc1", "note": "[Indomethacin, reference compound]", "values": [{"measurement": "Inhibition (of hind paw edema)", "setting": "[2]; 10 mg/kg IP", "result": 53, "unit": "%"}, {"measurement": "Edema", "setting": "[2]; 10 mg/kg IP", "result": 0.44, "unit": "mL"}]}]}
